pEC50: −log10 of the molar value.
What was measured:
[1] = system: Human immunodeficiency virus 1; assay: Selectivity ratio of EC50 for antiviral activity against GS-9160-resistant HIV1 selected after 6 passages to EC50 for antiviral activity against wild-type HIV1 3B; format: functional
[2] = Cytotoxicity against human SupT1 cells infected with HIV1 3B; format: cell-based, SUP-T1; settings: SupT1 cells infected with HIV-1 3B
[3] = system: Human immunodeficiency virus 1; assay: Selectivity ratio of EC50 for antiviral activity against EFV-resistant HIV1 selected after 7 passages to EC50 for antiviral activity against wild-type HIV1 3B; format: functional
[4] = system: Human immunodeficiency virus 1; assay: Selectivity ratio of EC50 for antiviral activity against GS-9160-resistant HIV1 selected after 9 passages to EC50 for antiviral activity against wild-type HIV1 3B; format: functional
[5] = system: Human immunodeficiency virus 1; assay: Selectivity ratio of EC50 for antiviral activity against GS-9160-resistant HIV1 selected after 5 passages to EC50 for antiviral activity against wild-type HIV1 3B; format: functional
[6] = system: Human immunodeficiency virus 1; assay: Selectivity ratio of EC50 for antiviral activity against APV-resistant HIV1 selected after 4 passages to EC50 for antiviral activity against wild-type HIV1 3B; format: functional
[7] = system: Human immunodeficiency virus 1; assay: Selectivity ratio of EC50 for antiviral activity against GS-9160-resistant HIV1 selected after 8 passages to EC50 for antiviral activity against wild-type HIV1 3B; format: functional
[8] = system: Human immunodeficiency virus 1; assay: Selectivity ratio of EC50 for antiviral activity against EFV-resistant HIV1 selected after 3 passages to EC50 for antiviral activity against wild-type HIV1 3B; format: functional
[9] = system: Human immunodeficiency virus 1; assay: Selectivity ratio of EC50 for antiviral activity against 3TC-resistant HIV1 selected after 8 passages to EC50 for antiviral activity against wild-type HIV1 3B; format: functional
[10] = system: Human immunodeficiency virus 1; assay: Selectivity ratio of EC50 for antiviral activity against APV-resistant HIV1 selected after 2 passages to EC50 for antiviral activity against wild-type HIV1 3B; format: functional
[11] = system: Human immunodeficiency virus 1; assay: Antiviral activity against HIV1 infected in SupT1 cells assessed as accumulation of integrated junction products after 48 hrs by Alu-PCR assay; format: functional, organism-based; settings: Human immunodeficiency virus 1, SUP-T1, 48 h
[12] = system: Human immunodeficiency virus 1; assay: Selectivity ratio of EC50 for antiviral activity against 3TC-resistant HIV1 selected after 4 passages to EC50 for antiviral activity against wild-type HIV1 3B; format: functional
[13] = system: Human immunodeficiency virus 1; assay: Antiviral activity against HIV1 infected in SupT1 cells assessed as accumulation of late RT products after 12 hrs; format: functional, organism-based; settings: Human immunodeficiency virus 1, SUP-T1, 12 h
[14] = Cytotoxicity against human uninfected MT2 cells by three fold dilution method in presence of 10% FBS
[15] = system: Human immunodeficiency virus 1; assay: Antiviral activity against HIV1 3B infected in human MT-2 cells by two fold dilution method in presence of 10% FBS, HSA and alpha1-AGP; format: functional, organism-based; settings: Human immunodeficiency virus 1, 3B, MT2
[16] = system: Human immunodeficiency virus 1; assay: Antiviral activity against HIV1 3B infected in human MT-4 cells by two fold dilution method in presence of 10% FBS; format: functional, organism-based; settings: Human immunodeficiency virus 1, 3B, MT4
[17] = Cytotoxicity against human MT4 cells infected with HIV1 3B by three fold dilution method in presence of 10% FBS; format: cell-based; settings: MT4 cells infected with HIV-1 3B
[18] = system: Human immunodeficiency virus 1; assay: Antiviral activity against HIV1 3B infected in human MT-2 cells by two fold dilution method in presence of 10% FBS; format: functional, organism-based; settings: Human immunodeficiency virus 1, 3B, MT2
[19] = system: Human immunodeficiency virus 1; assay: Antiviral activity against 0.01 MOI HIV1 3B infected in human MT-2 cells by two fold dilution method in presence of 100% human serum; format: functional, organism-based; settings: Human immunodeficiency virus 1, 3B, MT2
[20] = system: Human immunodeficiency virus 1; assay: Antiviral activity against 0.001 MOI HIV1 BAL infected in human T lymphocyte cells by p24 antigen ELISA in presence of 10% FBS, HSA and alpha1-AGP; format: functional, organism-based; settings: Human immunodeficiency virus 1, BAL
[21] = Cytotoxicity against human T lymphocyte cells uninfected by XTT method in presence of 10% FBS
[22] = system: Human immunodeficiency virus 1; assay: Antiviral activity against HIV1 3B infected in SupT1 cells assessed as fold increase in viral 2-LTR circles accumulation after […] postinfection by TaqMan real-time PCR; format: functional, SUP-T1
[23] = system: Human immunodeficiency virus 1; assay: Antiviral activity against 0.001 MOI HIV1 BAL infected in human T lymphocyte cells by p24 antigen ELISA in presence of 10% FBS; format: functional, organism-based; settings: Human immunodeficiency virus 1, BAL
[24] = system: Human immunodeficiency virus 1; assay: Antiviral activity against 0.02 MOI HIV1 3B infected in human MT-2 cells by two fold dilution method in presence of 100% human serum; format: functional, organism-based; settings: Human immunodeficiency virus 1, 3B, MT2
[25] = system: Human immunodeficiency virus 1; assay: Antiviral activity against 0.04 MOI HIV1 3B infected in human MT-2 cells by […] dilution method in presence of 100% human serum; settings: Human immunodeficiency virus 1, 3B, MT2
[26] = system: Human immunodeficiency virus 1; assay: Selectivity ratio of EC50 for antiviral activity against HIV1 harboring E138K and Q148K mutation in catalytic core domain of integrase to EC50 for antiviral activity against wild-type HIV1 3B; format: functional
[27] = system: Human immunodeficiency virus 1; assay: Selectivity ratio of EC50 for antiviral activity against HIV1 harboring L74M mutation in catalytic core domain of integrase to EC50 for antiviral activity against wild-type HIV1 3B; format: functional
[28] = system: Human immunodeficiency virus 1; assay: Selectivity ratio of EC50 for antiviral activity against HIV1 harboring L74M and E92V mutation in catalytic core domain of integrase to EC50 for antiviral activity against wild-type HIV1 3B; format: functional
[29] = system: Human immunodeficiency virus 1; assay: Selectivity ratio of EC50 for antiviral activity against NRTI-resistant HIV1 harboring RTM184V mutant gene to EC50 for antiviral activity against wild-type HIV1 3B; format: functional
[30] = system: Human immunodeficiency virus 1; assay: Selectivity ratio of EC50 for antiviral activity against HIV1 harboring E92Q mutation in catalytic core domain of integrase to EC50 for antiviral activity against wild-type HIV1 3B; format: functional
[31] = system: Human immunodeficiency virus 1; assay: Selectivity ratio of EC50 for antiviral activity against HIV1 harboring G140S mutation in catalytic core domain of integrase to EC50 for antiviral activity against wild-type HIV1 3B; format: functional
[32] = system: Human immunodeficiency virus 1; assay: Selectivity ratio of EC50 for antiviral activity against HIV1 harboring E138K mutation in catalytic core domain of integrase to EC50 for antiviral activity against wild-type HIV1 3B; format: functional
[33] = system: Human immunodeficiency virus 1; assay: Selectivity ratio of EC50 for antiviral activity against HIV1 harboring N155S mutation in catalytic core domain of integrase to EC50 for antiviral activity against wild-type HIV1 3B; format: functional
[34] = system: Human immunodeficiency virus 1; assay: Selectivity ratio of EC50 for antiviral activity against NNRTI-resistant HIV1 harboring RTY181C mutant gene to EC50 for antiviral activity against wild-type HIV1 3B; format: functional
[35] = system: Human immunodeficiency virus 1; assay: Selectivity ratio of EC50 for antiviral activity against HIV1 harboring T66I mutation in catalytic core domain of integrase to EC50 for antiviral activity against wild-type HIV1 3B; format: functional
[36] = system: Human immunodeficiency virus 1; assay: Selectivity ratio of EC50 for antiviral activity against HIV1 harboring G140S and Q148H mutation in catalytic core domain of integrase to EC50 for antiviral activity against wild-type HIV1 3B; format: functional
[37] = system: Human immunodeficiency virus 1; assay: Selectivity ratio of EC50 for antiviral activity against HIV1 harboring N155H mutation in catalytic core domain of integrase to EC50 for antiviral activity against wild-type HIV1 3B; format: functional
[38] = system: Human immunodeficiency virus 1; assay: Selectivity ratio of EC50 for antiviral activity against HIV1 harboring E92V, G140S and V151A mutation in catalytic core domain of integrase to EC50 for antiviral activity against wild-type HIV1 3B; format: functional
[39] = system: Human immunodeficiency virus 1; assay: Selectivity ratio of EC50 for antiviral activity against HIV1 harboring E92V mutation in catalytic core domain of integrase to EC50 for antiviral activity against wild-type HIV1 3B; format: functional
[40] = system: Human immunodeficiency virus 1; assay: Selectivity ratio of EC50 for antiviral activity against PI-resistant HIV1 harboring […], L90M mutant gene to EC50 for antiviral activity against wild-type HIV1 3B; format: functional
[41] = system: Human immunodeficiency virus 1; assay: Selectivity ratio of EC50 for antiviral activity against PI-resistant HIV1 harboring […], V82A and L90M mutant gene to EC50 for antiviral activity against wild-type HIV1 3B; format: functional
[42] = system: Human immunodeficiency virus 1; assay: Selectivity ratio of EC50 for antiviral activity against NRTI-resistant HIV1 harboring RT-6TAMs mutant gene to EC50 for antiviral activity against wild-type HIV1 3B; format: functional
[43] = system: Human immunodeficiency virus 1; assay: Selectivity ratio of EC50 for antiviral activity against HIV1 harboring V151A mutation in catalytic core domain of integrase to EC50 for antiviral activity against wild-type HIV1 3B; format: functional
[44] = system: Human immunodeficiency virus 1; assay: Selectivity ratio of EC50 for antiviral activity against HIV1 harboring Q148K mutation in catalytic core domain of integrase to EC50 for antiviral activity against wild-type HIV1 3B; format: functional
[45] = system: Human immunodeficiency virus 1; assay: Selectivity ratio of EC50 for antiviral activity against HIV1 harboring E92V and V151A mutation in catalytic core domain of integrase to EC50 for antiviral activity against wild-type HIV1 3B; format: functional
[46] = system: Human immunodeficiency virus 1; assay: Selectivity ratio of EC50 for antiviral activity against NNRTI-resistant HIV1 harboring RTK103N mutant gene to EC50 for antiviral activity against wild-type HIV1 3B; format: functional
[47] = system: Human immunodeficiency virus 1; assay: Selectivity ratio of EC50 for antiviral activity against NRTI-resistant HIV1 harboring RTK65R mutant gene to EC50 for antiviral activity against wild-type HIV1 3B; format: functional

CC(C)CN(C[C@@H](O)[C@H](Cc1ccccc1)NC(=O)O[C@H]1CCOC1)S(=O)(=O)c1ccc(N)cc1
Ratio EC50 [1]: 1.5 | CC50 [2]: 96000 nM | Ratio EC50 [3]: 1.6 | Ratio EC50 [4]: 1.5 | Ratio EC50 [5]: 1 | Ratio EC50 [6]: 8.7 | Ratio EC50 [7]: 4 | Ratio EC50 [8]: 1.2 | Ratio EC50 [9]: 0.9 | Ratio EC50 [10]: 3.4 | pEC50 [11]: < 6.00 | Ratio EC50 [12]: 1.6 | pEC50 [13]: < 6.00

Cc1nnc(C(=O)NC(C)(C)c2nc(C(=O)NCc3ccc(F)cc3)c(O)c(=O)n2C)o1
CC50 [14]: > 100000 nM | pEC50 [15]: 7.74 | pEC50 [16]: 8.10 | CC50 [17]: 58200 nM | pEC50 [18]: 8.52

COc1cc2c(cc1Cc1cccc(Cl)c1F)c(=O)c(C(=O)O)cn2[C@@H](CO)C(C)C
CC50 [14]: 8000 nM | pEC50 [19]: 7.08 | pEC50 [15]: 7.62 | CC50 [2]: 5300 nM | pEC50 [16]: 9.77 | pEC50 [20]: 7.80 | CC50 [17]: 4000 nM | CC50 [21]: 40000 nM | fold change (FC) [22]: 2.3 | pEC50 [23]: 9.70 | pEC50 [11]: 9.52 | pEC50 [24]: 6.92 | pEC50 [13]: < 6.00 | pEC50 [18]: 9.22 | pEC50 [25]: 6.68

CC(C)c1nc(COC(N)=O)n(Cc2ccncc2)c1Sc1cc(Cl)cc(Cl)c1 [CAPRAVIRINE]
Ratio EC50 [26]: 3 | Ratio EC50 [27]: 1 | Ratio EC50 [28]: 3 | Ratio EC50 [29]: 1 | Ratio EC50 [30]: 1 | Ratio EC50 [31]: 2 | Ratio EC50 [32]: 3 | Ratio EC50 [33]: 6 | Ratio EC50 [34]: 89 | Ratio EC50 [35]: 2 | Ratio EC50 [36]: 0.2 | Ratio EC50 [37]: 6 | Ratio EC50 [38]: 3 | Ratio EC50 [39]: 3 | Ratio EC50 [40]: 1 | Ratio EC50 [41]: 1 | Ratio EC50 [42]: 762 | Ratio EC50 [43]: 4 | Ratio EC50 [44]: 1 | Ratio EC50 [45]: 2 | Ratio EC50 [46]: 0 | pEC50 [18]: 9.70 | Ratio EC50 [47]: 0.4

Reference: ChEMBL document CHEMBL1629647, “Preclinical evaluation of GS-9160, a novel inhibitor of human immunodeficiency virus type 1 integrase” (Antimicrob Agents Chemother, 2009)
